From patent US7109236B2, “Analogs of green tea polyphenols as chemotherapeutic and chemopreventive agents” (SRI International, priority 2002, dated 2006)

What was measured:
MCF-7 (ER+) = test: MTT growth inhibition assay, MCF-7 breast cancer cells; type: cell-based
Experimental: (§1) Compounds of the invention were tested for their ability to inhibit growth in two breast cancer cell lines, MCF-7 (ER+) and MDA-MB-231 (ER−).
(§2) The growth inhibition assays were conducted using routine methods. Briefly, the cells were seeded in 24-well plates at a density of 2000 cells per well in 200 μL of […] growth medium. To each well was added 10 μL of DMSO containing the dissolved test compound; final DMSO concentration in each well was not more than 0.5%. Each test compound was assayed at concentrations of 0.4, 2, 10, and 50 μM. The plates were incubated for eight days, with the media and test solutions replaced every third day. On Day 8, the viable cells were measured by the MTT assay, as described in Mosmann et al. (1983), “Rapid Colorimetric Assay for Cellular Growth and Survival: Application to Proliferation and Cytotoxicity,” J. Immunol. Method. 65:55–63. The optical density at 575 nm of each test well was measured and compared to that for control wells, and the data used to calculate the percentage of growth inhibition at different concentrations. The IC50 value (the concentration of growth inhibitor that results in 50% growth inhibition of the cells in culture relative to control cells not exposed to any growth inhibitor) was determined by plotting dose-response curves.
(§3) The calculated IC50 values are set forth in Table 1, with the results representing the average of at least two experiments conducted for each compound at each of the four concentrations.
(§4) The foregoing procedures were repeated with additional compounds of the invention to evaluate the their ability to inhibit growth in MCF-7 (ER+) and MDA-MB-231 (ER−).

in vitro = conditions: human, Caco-2, pH 7.4
Description: (§5) The Caco-2 human colon adenocarcinoma cell line has become accepted as a predictive model for human intestinal absorption. […] The transport is reported as a permeability coefficient, P(app), which is compared to those of the known standards.

[1] = tested on: human lung tumor cells (A427); test: Anchorage-independent growth inhibition assay (colony formation in soft agar); type: cell-based; conditions: for Expected Colonies: A427 cells, (cells plated)(Surviving Fraction)(Frequency)
Experimental: (§6) An anchorage-independent growth inhibition assay was performed as described in Korytynski, et al. (1996) “The development of an anchorage-independence assay using human lung tumor cells to screen potential chemopreventive agents,” Anticancer Res. 16, 1091–1094; and Sharma, et al. (1997) “The anchorage-independent assay as a screening tool to identify potential chemopreventive agents,” Methods Cell Sci. 19, 9–12. The assay measures the inhibition of colony formation of human lung tumor cells (A427) cells grown in soft agar. In this assay, A427 cells were grown in the presence of the test agent, SR 13196, EGCG or 13-cis-RA Control samples were tested using an equivalent volume of DMSO alone. A concurrent assay for cell survival was also performed.
(§7) Thus, SR 13196 inhibits colony formation of A427 cells in vitro, as well as their survival, and in a dose-dependent manner.

MCF-7 cells = test: Cell cycle studies in MCF-7 cells; type: cell-based; conditions: 10 μM
Description: To establish that the analogs of EGCG also act via the same mechanisms as EGCG itself, the active analog SR 13196 in cell cycle studies in MCF-7 cells was examined.

MDA-MB-231 (ER−) = test: MTT growth inhibition assay, MDA-MB-231 breast cancer cells; type: cell-based
Experimental: as §1, §2, §3, §4

A427 cells = test: Concurrent assay for cell survival; type: cell-based, human; conditions: highest concentration tested (25 μM)
Experimental: as §6, §7

[2] = standards of known oral bioavailability; cited from earlier work
[3] = tested on: Caco-2 human colon adenocarcinoma cell line; test: Caco-2 intestinal permeability model; conditions: for Papp: Caco-2, pH 7.4
Description: as §5

[4] = Homo sapiens, MCF7, 192 h, Table 1, 8 days
[5] = Homo sapiens, MDA-MB-231, 192 h, Table 1, 8 days
[6] = Table 2 (repeat run with additional compounds), 8 days
[7] = Homo sapiens, MCF7, 192 h, Table 2 (repeat run with additional compounds), 8 days
[8] = Homo sapiens, MDA-MB-231, 192 h, Table 2 (repeat run with additional compounds), 8 days

With `COc1cc([C@H]2Oc3cc(O)cc(O)c3C[C@H]2OC(=O)c2cc(C)c(O)c(C)c2)cc(OC)c1OC` (relative stereo) [SR 13196] the IC50 (MCF-7 (ER+); [4]) was 8.39 µM, the Papp at 100 μM (in vitro) was 6.82 ± 0.83 ×10⁻⁶ cm/s and the “inhibition of colony formation, in words” value ([1]; A427 cells in soft agar) was “inhibited colony formation to a much greater extent than either EGCG or 13-cis-RA”. For the same compound, the “Expected Colonies” value ([1]; 1.56 μM) was 277, the “Expected Colonies” value ([1]; 3.12 μM) was 160 and the “Expected Colonies” value ([1]; 6.25 μM) was 67. The “Expected Colonies” value ([1]; 12.5 μM) was 52, the inhibition at 1.56 µM ([1]; Homo sapiens, A-427, A427 cells in soft agar, 1.56 μM) was 4% and the inhibition at 3.12 µM ([1]; Homo sapiens, A-427, A427 cells in soft agar, 3.12 μM) was 32%. The inhibition at 6.25 µM ([1]; Homo sapiens, A-427, A427 cells in soft agar, 6.25 μM) was 43%, the inhibition at 12.5 µM ([1]; Homo sapiens, A-427, A427 cells in soft agar, 12.5 μM) was 46% and the inhibition at 25 µM ([1]; Homo sapiens, A-427, A427 cells in soft agar, 25 μM) was 81%. The “effect on cell cycle” value (MCF-7 cells) was “arrests the cell cycle in G1” and the IC50 (MDA-MB-231 (ER−); [5]) was 19.6 µM.

For `CC1=C(/C=C/C(C)=C/C=C/C(C)=C\C(=O)O)C(C)(C)CCC1` [Compound 13-cis-RA, reference compound], the surviving cells (A427 cells) was 68%, the “Expected Colonies” value ([1]; 1.56 μM) was 332 and the “Expected Colonies” value ([1]; 3.12 μM) was 320. The “Expected Colonies” value ([1]; 6.25 μM) was 289, the “Expected Colonies” value ([1]; 12.5 μM) was 265 and the “Expected Colonies” value ([1]; 25 μM) was 254.

In the case of `CN1C(=O)CN=C(c2ccccc2)c2cc(Cl)ccc21` [Diazepam, diazepam], the “% Absorbed (literature value)” value [2] is listed as 100%.

With `O=C(O[C@@H]1Cc2c(O)cc(O)cc2O[C@@H]1c1cc(O)c(O)c(O)c1)c1cc(O)c(O)c(O)c1` [EGCG, (−)-epigallocatechin-3-gallate, reference compound] the IC50 (MCF-7 (ER+); [6]) was 37.1 µM, the “permeability coefficient (Papp), in words” value ([3]; Caco-2 model, summary of the experiments) was “low permeability coefficient” and the “Expected Colonies” value ([1]; 1.56 μM) was 386. The “Expected Colonies” value ([1]; 3.12 μM) was 382, the “Expected Colonies” value ([1]; 6.25 μM) was 378 and the “Expected Colonies” value ([1]; 12.5 μM) was 331. For the same compound, the “Expected Colonies” value ([1]; 25 μM) was 191, the “effect on cell cycle” value (MCF-7 cells) was “arrests the cell cycle in G1” and the IC50 (MDA-MB-231 (ER−); [6]) was 36.9 µM.

In the case of `Nc1nc(O)c2ncn(COC(CO)CO)c2n1` [Ganciclovir, ganciclovir], the “% Absorbed (literature value)” value [2] is listed as 3%.

Compound `COc1cc(C2Oc3cc(O)cc(O)c3C[C@H]2OC(=O)c2cc(O)c(O)c(O)c2)cc(OC)c1OC` (stereo partly drawn) [SR 13194, trans-5,7-DIHYDROXY-2-(3,4,5-TRIMETHOXY-PHENYL)-3,4-DIHYDRO-2H-CHROMAN-3-YL, 3,4,5-TRIHYDROXY-BENZOIC ACID ESTER] has an IC50 (MCF-7 (ER+); [4]) greater than 100 µM and an IC50 (MDA-MB-231 (ER−); [5]) greater than 100 µM.

For `COc1cc([C@H]2Oc3cc(O)cc(O)c3C[C@H]2OC(=O)c2cc(O)c(O)c(O)c2)cc(OC)c1OC` [SR 13195, cis-5,7-DIHYDROXY-2-(3,4,5-TRIMETHOXY-PHENYL)-3,4-DIHYDRO-2H-CHROMAN-3-YL, 3,4,5-TRIHYDROXY-BENZOIC ACID ESTER], the IC50 (MCF-7 (ER+); [4]) was greater than 100 µM and the IC50 (MDA-MB-231 (ER−); [5]) was greater than 100 µM.

Work on `COc1cc(OC)c2c(c1)OC(c1cc(O)c(O)c(O)c1)[C@H](OC(=O)c1cc(O)c(O)c(O)c1)C2` (stereo partly drawn) [SR 13198, trans-5,7-DIMETHOXY-2-(3,4,5-TRIHYDROXY-PHENYL)-3,4-DIHYDRO-2H-CHROMAN-3-YL, 3,4,5-TRIHYDROXY-BENZOIC ACID ESTER] yielded an IC50 (MCF-7 (ER+); [7]) of 42.1 µM and an IC50 (MDA-MB-231 (ER−); [8]) of 35.9 µM.

`COc1cc(OC)c2c(c1)O[C@H](c1cc(O)c(O)c(O)c1)[C@H](OC(=O)c1cc(C)c(O)c(C)c1)C2` [SR 13200] showed an IC50 (MCF-7 (ER+); [7]) of 22.9 µM and an IC50 (MDA-MB-231 (ER−); [8]) of 22.6 µM.

`Cc1cc(C)c2c(c1)OC(c1cc(O)c(O)c(O)c1)[C@H](OC(=O)c1cc(O)c(O)c(O)c1)C2` (stereo partly drawn) [SR 13911] gave an IC50 (MCF-7 (ER+); [7]) of 23.6 µM, a Papp at 100 μM (in vitro) of 1.42 ± 1.6 ×10⁻⁶ cm/s and an IC50 (MDA-MB-231 (ER−); [8]) of 25.7 µM.

Compound `Cc1cc(C)c2c(c1)O[C@H](c1cc(O)c(O)c(O)c1)[C@H](OC(=O)c1cc(O)c(O)c(O)c1)C2` [SR 13912] has an IC50 (MCF-7 (ER+); [7]) of 21.8 µM and an IC50 (MDA-MB-231 (ER−); [8]) of 53.7 µM.

In the case of `Cc1cc(C)c2c(c1)O[C@H](c1cc(O)c(O)c(O)c1)[C@H](OC(=O)c1cc(C)c(O)c(C)c1)C2` [SR 13913], the IC50 (MCF-7 (ER+); [7]) is reported as 17.2 µM and the Papp at 100 μM (in vitro) is reported as less than 0.06 ×10⁻⁶ cm/s.

For `COc1cc([C@H]2Oc3cc(O)cc(O)c3C[C@H]2OC(=O)c2cc(O)c(O)c(O)c2)cc(OC)c1O` [SR 13915], the IC50 (MCF-7 (ER+); [6]) was greater than 100 µM, the Papp [3] was 5.17 ± 0.49 ×10⁻⁶ cm/s and the IC50 (MDA-MB-231 (ER−); [6]) was greater than 100 µM.

In the case of `Cc1cc(C(=O)O[C@@H]2Cc3c(O)cc(O)cc3O[C@@H]2c2cc(C)c(O)c(C)c2)cc(C)c1O` [SR 13916], the IC50 (MCF-7 (ER+); [6]) is reported as 6.61 µM and the IC50 (MDA-MB-231 (ER−); [6]) is reported as 10.2 µM.

Compound `Cc1cc([C@H]2Oc3cc(O)cc(O)c3CC2OC(=O)c2cc(O)c(O)c(O)c2)cc(C)c1O` (stereo partly drawn) [SR 13917] has an IC50 (MCF-7 (ER+); [6]) of 6.12 µM and an IC50 (MDA-MB-231 (ER−); [6]) of 2.98 µM.

Compound `Cc1cc([C@H]2Oc3cc(O)cc(O)c3C[C@H]2OC(=O)c2cc(O)c(O)c(O)c2)cc(C)c1O` [SR 13918] has an IC50 (MCF-7 (ER+); [6]) greater than 100 µM and an IC50 (MDA-MB-231 (ER−); [6]) of 46.8 µM.

`COc1cc(C(=O)O[C@@H]2Cc3c(C)cc(C)cc3O[C@@H]2c2cc(O)c(O)c(O)c2)cc(OC)c1OC` [SR 13919] showed an IC50 (MCF-7 (ER+); [6]) of 8.35 µM, a Papp [3] of less than 0.06 ×10⁻⁶ cm/s and an IC50 (MDA-MB-231 (ER−); [6]) of 7.76 µM.

Work on `COc1cc([C@H]2Oc3cc(O)cc(O)c3C[C@H]2OC(=O)c2cc(C)c(O)c(C)c2)cc(OC)c1O` [SR 13920] yielded an IC50 (MCF-7 (ER+); [6]) of 33.1 µM and an IC50 (MDA-MB-231 (ER−); [6]) of 9.97 µM.
